For the assay, the target named is T1, intestinal disaccharidase complex (saccharase) (Sus scrofa, UniProt P56729).
T1 construct: both subunits cut from one SI precursor
Nature of the assay: In vitro saccharase inhibition test. The settings on record: for specific inhibitory activity (saccharase inhibitor units per gram): pH 6.25, 37° C., 20 minutes, sucrose substrate. It counts as biochemical, pig. The source says: In vitro saccharase inhibition test
The in vitro saccharase inhibition test makes it possible to determined the enzyme inhibitory activity of a sample by comparing the activity of the solubilised intestinal disaccharidase complex in the presence of the inhibitor with its activity in the absence (so-called 100% value) of the inhibitor. A virtually glucose-free (<100 ppm) saccharose is used here as the substrate, which determines the specificity of the inhibition test; the enzyme activity determination is based on the colorometric determination of liberated glucose by means of glucoseoxydase, peroxydase and 2,2-azino-di-[3-ethyl-benzthiazoline-6-sulphonate] (=ABTS) as the chromogen.
A saccharase inhibitor unit (SIU) is defined as that inhibitory activity which reduces a given saccharolytic activity in a defined test batch by one unit (saccharase unit=SU); the saccharase unit is defined here as that enzyme activity which, under given conditions, in one minute splits 1 μmol of sucrose and thus leads to the liberation of 1 μmol each of glucose, which is determine in the test, and fructose, which is not detected in the test.
The intestinal disaccharidase complex is obtained from pig's small intestine mucosa by trypsin digestion, precipitation from 66% ethanol at -20° C., taking up of the precipitate in 100 mM phosphate buffer of pH 7.0 and concluding dialysis against the same buffer.
100 μl of a dilution of the intestinal disaccharidase complex in 0.1 M maleate buffer of pH 6.25 are added to 10 μl of a sample solution which is diluted so that the extinction of the test batch is at least 10%, but not more than 25%, below that of the 100% value, and the mixture is pre-incubated for 10 minutes at 37° C. The dilution of the disaccharidase complex is to be adjusted to an activity of 0.05 SU/ml. […] In order to develop the colour, the mixture is incubated for 30 minutes at 37° C., after which it is diluted with 2 ml of tris buffer and measured photometrically at 420 nm against a reagent blank (with enzyme but without sucrose). […]

Consider three compounds from patent US4175123A, “Amino-sugar derivatives, process for their preparation and pharmaceutical composition thereof” (Bayer Aktiengesellschaft, priority 1976, dated 1979).

T1 sequence (P56729 with tags, fused parts or gaps): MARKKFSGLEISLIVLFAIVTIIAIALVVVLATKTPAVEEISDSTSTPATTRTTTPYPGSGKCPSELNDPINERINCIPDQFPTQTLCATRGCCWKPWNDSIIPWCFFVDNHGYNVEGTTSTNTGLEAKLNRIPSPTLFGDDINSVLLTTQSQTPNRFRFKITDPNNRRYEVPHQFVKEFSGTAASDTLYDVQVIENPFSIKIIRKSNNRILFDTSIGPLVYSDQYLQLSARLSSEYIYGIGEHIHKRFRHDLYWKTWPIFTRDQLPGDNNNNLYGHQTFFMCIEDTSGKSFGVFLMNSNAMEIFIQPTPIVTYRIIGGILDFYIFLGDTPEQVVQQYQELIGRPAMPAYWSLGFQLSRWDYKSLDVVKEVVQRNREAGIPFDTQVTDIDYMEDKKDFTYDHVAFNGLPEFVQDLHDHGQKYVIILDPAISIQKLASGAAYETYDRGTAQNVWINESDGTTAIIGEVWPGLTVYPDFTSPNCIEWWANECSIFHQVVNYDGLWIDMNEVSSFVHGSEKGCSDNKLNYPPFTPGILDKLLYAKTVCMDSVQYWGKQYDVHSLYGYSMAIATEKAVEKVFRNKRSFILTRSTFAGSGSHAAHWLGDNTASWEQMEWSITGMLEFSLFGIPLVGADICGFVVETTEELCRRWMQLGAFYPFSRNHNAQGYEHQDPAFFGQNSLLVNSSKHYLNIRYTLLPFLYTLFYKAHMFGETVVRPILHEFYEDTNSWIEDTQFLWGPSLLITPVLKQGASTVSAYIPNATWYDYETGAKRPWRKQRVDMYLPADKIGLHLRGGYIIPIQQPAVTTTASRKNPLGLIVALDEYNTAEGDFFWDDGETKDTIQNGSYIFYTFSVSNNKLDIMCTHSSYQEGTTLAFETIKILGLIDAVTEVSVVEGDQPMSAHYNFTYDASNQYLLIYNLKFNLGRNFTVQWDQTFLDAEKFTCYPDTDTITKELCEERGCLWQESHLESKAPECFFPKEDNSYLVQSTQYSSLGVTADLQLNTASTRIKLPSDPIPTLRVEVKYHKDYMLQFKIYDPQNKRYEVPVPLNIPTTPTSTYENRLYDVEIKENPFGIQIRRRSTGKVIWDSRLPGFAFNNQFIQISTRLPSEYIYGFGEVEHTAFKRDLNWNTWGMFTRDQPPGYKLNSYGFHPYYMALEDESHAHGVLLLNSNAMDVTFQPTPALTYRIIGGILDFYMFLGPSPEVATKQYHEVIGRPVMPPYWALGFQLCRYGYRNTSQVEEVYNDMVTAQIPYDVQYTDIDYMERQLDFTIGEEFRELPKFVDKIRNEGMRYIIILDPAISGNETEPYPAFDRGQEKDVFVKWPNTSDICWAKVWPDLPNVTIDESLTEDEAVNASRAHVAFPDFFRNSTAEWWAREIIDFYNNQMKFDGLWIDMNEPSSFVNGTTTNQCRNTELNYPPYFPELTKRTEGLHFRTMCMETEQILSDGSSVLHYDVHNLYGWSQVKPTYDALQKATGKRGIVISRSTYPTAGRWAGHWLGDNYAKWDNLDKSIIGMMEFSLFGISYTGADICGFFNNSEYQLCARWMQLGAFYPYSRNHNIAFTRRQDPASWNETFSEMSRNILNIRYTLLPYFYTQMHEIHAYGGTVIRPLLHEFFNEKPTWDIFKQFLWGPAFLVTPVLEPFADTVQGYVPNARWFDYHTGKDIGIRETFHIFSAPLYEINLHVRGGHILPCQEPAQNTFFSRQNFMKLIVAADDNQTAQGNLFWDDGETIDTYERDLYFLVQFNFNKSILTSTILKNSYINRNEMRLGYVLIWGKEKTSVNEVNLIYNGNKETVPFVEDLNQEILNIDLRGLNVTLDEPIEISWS

As to `C[C@H]1O[C@H](O[C@H]2[C@H](O)[C@@H](O)[C@@H](O[C@H]3[C@H](O)[C@@H](O)C(O)O[C@@H]3CO)O[C@@H]2CO)[C@H](O)[C@@H](O)[C@@H]1N[C@H]1C=C(CO)[C@@H](O)[C@H](O)[C@H]1O` (stereo partly drawn) [compound of the formula I (page 2) with m=0 and n=2], the “specific inhibitory activity (saccharase inhibitor units per gram)” value is 68,000 SIU/g. On the same count and under the same terms, in the case of `C[C@H]1O[C@H](O[C@H]2[C@H](O)[C@@H](O)[C@@H](O[C@H]3[C@H](O)[C@@H](O)C(O)O[C@@H]3CO)O[C@@H]2CO)[C@H](O)[C@@H](O)[C@@H]1N[C@H]1C=C(CO)[C@@H](O)[C@H](O)[C@H]1O` (stereo partly drawn) [compound with P+q=2] it was 65,000 SIU/g.

In the case of `C[C@H]1O[C@H](O[C@H]2[C@H](O)[C@@H](O)[C@@H](O[C@H]3[C@H](O)[C@@H](O)[C@@H](O[C@H]4[C@H](O)[C@@H](O)C(O)O[C@@H]4CO)O[C@@H]3CO)O[C@@H]2CO)[C@H](O)[C@@H](O)[C@@H]1N[C@H]1C=C(CO)[C@@H](O)[C@H](O)[C@H]1O` (stereo partly drawn) [isomers with p=0 and q=3], the “in vitro sucrose inhibitory activity” value (isolated isomer) is reported as 19,000 SIU/g.
